How the values were obtained:
[1] = Body weight / tolerability, htau mice; assay type: in vivo, htau mouse; conditions: 100 mg/kg p.o. q.o.d., 20 days
Excerpt: hTau Mice Studies. htau mice and WT mice (C57BL/6J) were purchased from Jackson Laboratories. htau mice were maintained in-house through breeding between htau+/− mice. Genotype was confirmed by PCR amplification as previously described.^18 Only homozygous mice were used in in vivo studies. Mice were randomly assigned to a treatment group, which were age- and gender-matched (n=X). In these studies, mice were >9 months of age since cognitive and physiological impairments in htau mice was age-dependent and were not presented in young mice (<4 months) with early-stage tau pathology.^42 Mice were orally administered vehicle (5/5/90 DMSO/Tween-80/H2O) or 100 mg/kg of 2 in the same formulation every other day (q.o.d.). During the treatment period, nesting activity was assessed, as describe in Nesting Activity below. After 20 days, the mice were euthanized (in accordance with guidelines provided by the American Veterinarian Medical Association), and the brain was harvested for analysis. One hemisphere of the brain was frozen at −80° C. for RT-qPCR analyses while the other was used for histological studies.

7-deaza-guanosine WT RNA = test: Fluorescent binding affinity, 7-deaza-guanosine WT RNA; conditions: n=3, read-out: Kd (affinity for the modified RNA)
Method: Fluorescent Binding Affinity Measurements. Binding assays were completed as previously described.^30 Briefly, the RNA of interest was folded in 1× Assay Buffer-1 (AB1: 8 mM Na2HPO4, pH 7.0, 185 mM NaCl, and 1 mM EDTA) by heating at 95° C. for 30 s followed by slowly cooling to room temperature. Bovine serum albumin (BSA) was then added to a final concentration of 40 μg/mL to afford 1× Assay Buffer-2 (AB2: 8 mM Na2HPO4, pH 7.0, 185 mM NaCl, 1 mM EDTA, and 40 μg/mL BSA). The RNA solution was serial diluted with 1×AB2. Then, compound of interest was added to the RNA solutions to a final concentration of 0.5 μM. […] Fluorescence intensity was measured using a Tecan Plate Reader (Gain: 100, Integration time: 40 μs). […] The change in fluorescence of the small molecule was calculated by its comparison to samples lacking RNA. Binding affinity was calculated using Equation 1, as previously described:^30
where I and I0 are the measured fluorescence intensity of the compound with or without RNA, respectively, Δε is the difference between the fluorescence intensity with the infinite concentration of RNA and the fluorescence intensity without RNA, [SM]0 and [RNA]0 are the concentrations of the small molecule (SM) and RNA, respectively, and Kd is the dissociation constant.

WT mice = test: Nesting activity, WT mice; assay type: in vivo, mouse
Method: Nesting Activity. From Day 1 to Day 20, mice were individually housed and nesting material from the previous day was removed. An intact 3.0 g nestlet was placed within each cage. Around 15 h later, the resulting nest was photographed for qualitative scoring, and the untorn nestlet was weighed if present. All nest images and weights were analyzed by a blinded individual and based on published criteria.^43 In brief, nesting is scored on a rating scale of 1-5 where if the nestlet is over 90% intact, it is given a nestlet score is 1 (Poor; FIG. 4C). When the nestlet is partially torn but >50% remains, the nestlet score is 2; a score of 3 is assigned when 50-90% of the nestlet is torn but spread around the cage and no identifiable nest site is found (Medium; FIG. 4C). When more than 90% of the nestlet is torn and the nest is identifiable but flat, the nestlet score is 4. When a near perfect nest is built and the wall is higher than the mouse's body, it is assigned a nestlet score of 5 (Good; FIG. 4C).

[2] = test system: DDPAC MAPT mini-gene (exon 10 splicing); test: 4R/3R MAPT mRNA by RT-qPCR, HeLa cells transfected with DDPAC mini-gene; assay type: cell-based
Method: RNA Isolation and Real-Time Quantitative PCR (RT-qPCR). HeLa cells were treated as described in the Luciferase Reporter assay to Study Exon 10 Alternative Splicing. LAN5 cells were seeded in 12-well plates at 0.2×10^6 cells per well, treated with compound or ASO, and incubated for 48 h. Compound stocks prepared in DMSO and ASO stocks prepared in water were diluted in growth medium and added to cells. Total RNA was extracted from cells and analyzed via RT-qPCR to determine levels of 3R and 4R tau mRNA. In brief, the cells were washed with 1×DPBS and then lysed in the well using 300 μL of Lysis Buffer provided in a Quick-RNA MiniPrep kit (Zymo Research), which was used to extract total RNA per the manufacturer's protocol including the on-column DNase I digestion. The concentration of total RNA was measured by NanoDrop 2000 (Thermo Fisher Scientific). Only samples with OD260/OD280>1.8 were carried forward for analysis. Reverse transcription (RT) was carried out on 200 ng of total RNA using a qScript cDNA synthesis kit (QuantaBio) in a total volume of 10 μL according to the manufacturer's protocol. […] 4R/3R ratio were analyzed using ΔΔCt method using Equation 2: […]

[3] = test system: WT I17T MAPT mini-gene (exon 10 splicing); test: 4R/3R MAPT mRNA by RT-qPCR, HeLa cells transfected with WT I17T mini-gene; assay type: cell-based
Method: RNA Isolation and Real-Time Quantitative PCR (RT-qPCR). HeLa cells were treated as described in the Luciferase Reporter assay to Study Exon 10 Alternative Splicing. LAN5 cells were seeded in 12-well plates at 0.2×10^6 cells per well, treated with compound or ASO, and incubated for 48 h. Compound stocks prepared in DMSO and ASO stocks prepared in water were diluted in growth medium and added to cells. Total RNA was extracted from cells and analyzed via RT-qPCR to determine levels of 3R and 4R tau mRNA. In brief, the cells were washed with 1×DPBS and then lysed in the well using 300 μL of Lysis Buffer provided in a Quick-RNA MiniPrep kit (Zymo Research), which was used to extract total RNA per the manufacturer's protocol including the on-column DNase I digestion. The concentration of total RNA was measured by NanoDrop 2000 (Thermo Fisher Scientific). Only samples with OD260/OD280>1.8 were carried forward for analysis. Reverse transcription (RT) was carried out on 200 ng of total RNA using a qScript cDNA synthesis kit (QuantaBio) in a total volume of 10 μL according to the manufacturer's protocol. An Applied Biosystems QS5 384-well PCR system was used to complete qPCR reactions with Power SYBR Green Master Mix (Life Technologies), 600 nM each primer (Table S3), 20 ng of cDNA (1 μL of the RT reaction), in a total volume of 33 μL. Technical triplicates (10 μL each) were aliquoted into 384-well qPCR plates (Applied biosystems, 4483285). Subsequent qPCR analysis was performed using an Applied Biosystems QS5 384-well PCR system (software v.1.3.0). 4R/3R ratio were analyzed using ΔΔCt method using Equation 2: […]
where ΔCt 4R or ΔCt 3R is the difference between the Ct values for the 4R or 3R MAPT mRNA and a housekeeping gene (18S rRNA) in total RNA from cells.

- Kd (7-deaza-guanosine WT RNA): 3.4 ± 0.9 µM
SMILES: COc1cc(N)ncc1CCCN(C)CCCn1cnc2c3ccccc3n(C)c2c1=O [Compound 2, 3-(3-((3-(6-amino-4-methoxypyridin-3-yl)propyl)(methyl)amino)propyl)-5-methyl-3,5-dihydro-4H-pyrimido[5,4-b]indol-4-one]
- change in weight [1]: no change in the weight
- tolerability [1]: well tolerated
- nesting behavior vs no treatment (WT mice; 20 days, 100 mg/kg p.o. q.o.d.): no significant difference in nesting behavior
- nest score at Day 20 (WT mice; scale 1-5, 100 mg/kg p.o. q.o.d.): 4.1±0.2
- average nest score over time (WT mice; scale 1-5, over 20 days, 100 mg/kg p.o. q.o.d.): 3.7-4.3
- PSI10 (PSI of MAPT exon 10) vs vehicle ([2]; HeLa, DDPAC mini-gene): downregulated
- inhibition at 1.5 µM ([2]; Homo sapiens, 2 at 1.5 μM, 48 h, HeLa DDPAC mini-gene, read-out: reduction of 4R/3R ratio (mRNA)): 42 ± 3%
- PSI10 (PSI of MAPT exon 10) vs vehicle [3]: not WT I17T or DDPAC I17T mutant
- change in 4R/3R ratio (not statistically significant) ([3]; 1 at 10 μM or 2 at 1.5 μM): < 16%

From US20260308158A1, “TARGETING RNAS ASSOCIATED WITH TAUOPATHIES WITH SMALL MOLECULES” (University of Florida Research Foundation, Incorporated, priority 2023, published 2026)
